Assay: Anticancer human tumor 997537-175-T-J1-PDC patient-derived colon adenocarcinoma cell line growth inhibition [POLQ]
Conditions: 997537-175-T-J1-PDC complex spheroid viability, combination with POLQ inhibitors; for IC50: curve of first compound; for viability, T/C: stronger effect = lower value
Procedure: Multicellular complex tumor spheroid response to Polymerase (POL) inhibitors (novobiocin, ART-558, RP6685) in combination with a variety of drugs and investigational agents in selected tumor cell lines
The POL inhibitors (novobiocin, ART-558, and RP6685) were evaluated both individually and in combination with standard of care and investigational anticancer small molecules within a complex spheroid model of solid tumors. . Complex spheroids include a stromal component modeled by human endothelial cells (HUVEC) and fibroblasts modeled by human mesenchymal stem cells (MSCs). The concentration ranges selected for each drug and investigational agent were based upon clinically achievable concentrations if the clinical Cmax of the agent was known.
Compounds. The drugs and investigational agents: novobiocin (NSC847541), ART-558 (NSC835418), RP-6685 (NSC848927), peposertib (NSC802822), ceralasertib (NSC780249), elimusertib (NSC800525), camonsertib (NSC841442), AZD-1390 (NSC803789), olaparib (NSC753686), talazoparib (NSC767125), rucaparib (NSC756644), sotorasib (NSC818433), MRTX-1133 (NSC836407), SN-38 (NSC673596), topotecan (NSC609699), epotoside (NSC141540), doxorubicin (NSC123127), gemcitabine (NSC613327), 5-fluorouracil (NSC19893), paclitaxel (NSC125973), vemurafenib (NSC761431), MSA-2 (NSC828583), SN-011 (NSC837082), adavosertib (NSC754352), prexasertib (NSC758257), carboplatin (NSC241240) and oxaliplatin (NSC266046), were obtained from the National Cancer Institute (NCI) Developmental Therapeutics Program Chemical Repository (21). The FDA-approved anticancer drug set is available from the Developmental Therapeutics Program at https://dtp.cancer.gov/organization/dscb/obtaining/. […] The stock solutions were prepared in dimethyl sulfoxide (DMSO, Sigma-Aldrich, St. Louis, MO, cat. D2650), except for the platinum compounds which were prepared in saline (Quality Biological, Gaithersburg, MD, cat. 114-055-101), at 800-fold the tested concentration and stored at -70 degrees C prior to their use. All drugs and investigational agents were tested over a range starting from a high concentration at or near the clinical Cmax and decreasing in half-log increments. If the clinical Cmax for an agent had not been determined, the highest concentration tested was 10 microM, except for SN-38, which was tested at a high concentration of 1 microM.
Cell Culture. All cells were maintained in an incubator at 37 degrees C and 5% CO2 with 95% humidity. The PDC lines were cultured according to standard operating procedures established by the NCI PDMR (https://pdmr.cancer.gov). Table 3 of the manuscript, lists the cell lines along with the number of the three cell types plated to form the mct-spheroids and media for tumor cell growth. After thawing, all PDC lines, except 997537-175-T-J1-PDC and 415267-285-R-J2-PDC, were cultured in Matrigel-coated flasks prepared with a working solution of 1X Ham's F-12 nutrient mix, without supplementation (Thermo Fisher Scientific, cat. 11765054), 100 U/mL penicillin-streptomycin (Thermo Fisher Scientific, cat. 15140122), and 2.5% Matrigel (Corning Inc., Corning, NY, cat. 354248) for the first three passages. The two PDC lines 997537-175-T-J1-PDC and 415267-285-R-J2-PDC were cultured on uncoated flasks. The 857933-349-R-J2-PDC line was cultured in 6C/Colon 1B media containing advanced DMEM/F-12 (Thermo Fisher Scientific, cat. 12634028), 10 mM HEPES (Thermo Fisher Scientific, cat. 15630080), 1X GlutaMAX supplement (Thermo Fisher Scientific, cat. 35050061), 0.1 mg/mL primocin (InvivoGen, San Diego, CA, cat. ant-pm-2), 10% defined fetal bovine serum, heat inactivated (HyClone Laboratories Inc., Logan, UT, cat. SH30070.03HI), 50% L-WRN conditioned media (ATCC, cat. CRL-3276), 1.25 mM N-Acetyl-L-cysteine (Sigma-Aldrich, cat. A9165), 10 mM nicotinamide (Sigma-Aldrich, cat. N0636), 1X B-27 supplement (Thermo Fisher Scientific, cat. 17504044), 1X N-2 supplement (Thermo Fisher Scientific, cat. […]
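Further: luminescence signal used as a surrogate for viable cells; spheroids exposed to drugs for seven days before readout.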

Compound: COc1cc(C2c3cc4c(cc3C(OC3OC5COC(C)OC5C(O)C3O)C3COC(=O)C23)OCO4)cc(OC)c1O (configuration not stated) + Cc1cccc(N(C)C(=O)C2C(O)CCN2c2nc(C)cc(C(F)(F)F)c2C#N)c1
- IC50 (second compound 0.0316 µM): > 10 µM
- IC50 (second compound 0.1 µM): > 10 µM
- IC50 (second compound 0.316 µM): > 10 µM
- IC50 (second compound 1 µM): > 10 µM
- IC50 (second compound 3.16 µM): > 10 µM
- IC50 (second compound 10 µM): > 10 µM
- viability, T/C (second compound 0.0316 µM, first compound 0.0316 µM): 100%
- viability, T/C (second compound 0.0316 µM, first compound 0.1 µM): 99.4%
- viability, T/C (second compound 0.0316 µM, first compound 0.316 µM): 95.5%
- viability, T/C (second compound 0.0316 µM, first compound 1 µM): 97.7%
- viability, T/C (second compound 0.0316 µM, first compound 3.16 µM): 75.2%
- viability, T/C (second compound 0.0316 µM, first compound 10 µM): 68.9%
- viability, T/C (second compound 0.1 µM, first compound 0.0316 µM): 96.3%
- viability, T/C (second compound 0.1 µM, first compound 0.1 µM): 109%
- viability, T/C (second compound 0.1 µM, first compound 0.316 µM): 94.6%
- viability, T/C (second compound 0.1 µM, first compound 1 µM): 102%
- viability, T/C (second compound 0.1 µM, first compound 3.16 µM): 75.1%
- viability, T/C (second compound 0.1 µM, first compound 10 µM): 61.9%
- viability, T/C (second compound 0.316 µM, first compound 0.0316 µM): 99.8%
- viability, T/C (second compound 0.316 µM, first compound 0.1 µM): 102%
- viability, T/C (second compound 0.316 µM, first compound 0.316 µM): 96.3%
- viability, T/C (second compound 0.316 µM, first compound 1 µM): 97.2%
- viability, T/C (second compound 0.316 µM, first compound 3.16 µM): 85%
- viability, T/C (second compound 0.316 µM, first compound 10 µM): 52.8%
- viability, T/C (second compound 1 µM, first compound 0.0316 µM): 103%
- viability, T/C (second compound 1 µM, first compound 0.1 µM): 105%
- viability, T/C (second compound 1 µM, first compound 0.316 µM): 104%
- viability, T/C (second compound 1 µM, first compound 1 µM): 110%
- viability, T/C (second compound 1 µM, first compound 3.16 µM): 82%
- viability, T/C (second compound 1 µM, first compound 10 µM): 51.2%
- viability, T/C (second compound 3.16 µM, first compound 0.0316 µM): 89.5%
- viability, T/C (second compound 3.16 µM, first compound 0.1 µM): 86.2%
- viability, T/C (second compound 3.16 µM, first compound 0.316 µM): 102%
- viability, T/C (second compound 3.16 µM, first compound 1 µM): 93.3%
- viability, T/C (second compound 3.16 µM, first compound 3.16 µM): 77.3%
- viability, T/C (second compound 3.16 µM, first compound 10 µM): 69.4%
- viability, T/C (second compound 10 µM, first compound 0.0316 µM): 112%
- viability, T/C (second compound 10 µM, first compound 0.1 µM): 91.3%
- viability, T/C (second compound 10 µM, first compound 0.316 µM): 106%
- viability, T/C (second compound 10 µM, first compound 1 µM): 91.9%
- viability, T/C (second compound 10 µM, first compound 3.16 µM): 76.3%
- viability, T/C (second compound 10 µM, first compound 10 µM): 64.6%

Source: PubChem BioAssay AID1963825 (Molecular Pharmacology Branch, DTP, NCI, 2024)
